According to ChEMBL document CHEMBL1201862, “PubChem BioAssay data set” (2004):
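Step 1: Grow cells in 96-well plates. Step 2: Expose to compound for 48 hours at 5 concentrations. Step 3: Interpolate endpoints linearly; if unreached, use highest concentration. GI50: concentration for 50% inhibition of growth.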 The source made the active and inactive calls. No stated cut-off is given here; in the data, active = GI50 up to about 1.1 µM and inactive = higher.

Legend:
Experiment in all cases: inhibition of tumour cell growth, NCI panel, 48 h
[1] = test system: 786-0
[2] = test system: ACHN
[3] = test system: CAKI-1
[4] = test system: COLO 205
[5] = test system: HCT-116
[6] = test system: HL-60
[7] = test system: Hs-578T
[8] = test system: KM12
[9] = test system: M14
[10] = test system: MCF7
[11] = test system: MOLT-4
[12] = test system: NCI-H23
[13] = test system: NCI-H522
[14] = test system: RPMI-8226
[15] = test system: SF-295
[16] = test system: SF-539
[17] = test system: SK-MEL-2
[18] = test system: SK-OV-3
[19] = test system: T47D
[20] = test system: HOP-92

Measured: GI50

Cc1ccc(O)c(C(c2cccc(C(c3cc(C)ccc3O)c3cc(C)ccc3O)c2)c2cc(C)ccc2O)c1
inactive: [1] 1.69 µM | [2] 1.73 µM | [3] 1.52 µM | [4] 1.21 µM | [5] 1.89 µM | [6] 2.01 µM | [7] 1.56 µM | [8] 1.65 µM | [9] 1.88 µM | [10] 1.58 µM | [11] 2.6 µM | [12] 1.75 µM | [13] 1.64 µM | [14] 1.55 µM | [15] 2.24 µM | [16] 1.75 µM | [17] 2.1 µM | [18] 1.87 µM | [19] 1.98 µM

C1COCCOP2(N3CC3)=NP(N3CC3)(=NP(N3CC3)(N3CC3)=N2)OCCOCCO1 (centres undefined)
inactive: [1] > 100 µM | [2] > 100 µM | [3] > 100 µM | [4] > 100 µM | [5] > 100 µM | [6] > 100 µM | [7] > 100 µM | [8] > 100 µM | [9] > 100 µM | [10] > 100 µM | [11] > 100 µM | [12] > 100 µM | [13] > 100 µM | [14] > 100 µM | [15] > 100 µM | [16] > 100 µM | [18] > 100 µM | [19] 70.3 µM

CC1=NC2(CCCCC2)N(Cl)C(=O)C1SC#N (centres undefined)
inactive: [1] 17.5 µM | [2] 17.7 µM | [4] 63.1 µM | [6] > 100 µM | [7] 41 µM | [8] 21.4 µM | [9] 16.2 µM | [10] 23.6 µM | [11] 4.97 µM | [12] 25.1 µM | [13] 16.7 µM | [14] > 10 µM | [15] 18.7 µM | [16] 19.5 µM | [17] 20 µM | [18] > 10 µM | [19] 21.6 µM

CCO/C(Cc1ccc(Cl)cc1)=N/NC(N)=S
inactive: [1] > 100 µM | [2] > 100 µM | [3] > 100 µM | [4] > 100 µM | [5] > 100 µM | [20] > 100 µM | [7] > 100 µM | [8] > 100 µM | [9] > 100 µM | [10] > 100 µM | [11] > 100 µM | [12] > 100 µM | [15] > 100 µM | [16] > 100 µM | [17] > 100 µM | [18] > 100 µM | [19] 27.8 µM

CCOC(=O)c1cc(C2CCN(CC(C)CC)C2=S)c(C(=O)/C=C(/C)N)[nH]1 (centres undefined)
inactive: [1] > 50 µM | [2] > 50 µM | [3] > 50 µM | [4] > 50 µM | [5] > 50 µM | [6] > 50 µM | [7] > 50 µM | [8] > 50 µM | [9] > 50 µM | [10] > 50 µM | [11] > 50 µM | [12] > 50 µM | [14] > 50 µM | [15] > 50 µM | [16] > 50 µM | [17] > 50 µM | [18] > 50 µM | [19] > 50 µM

Cc1nn(C(=O)Cc2ccccc2)c2c1C(c1ccc(O)cc1)SC(=N)N2 (centres undefined)
inactive: [1] > 100 µM | [2] > 100 µM | [3] > 100 µM | [4] > 100 µM | [5] > 100 µM | [6] > 100 µM | [7] > 100 µM | [8] > 100 µM | [9] > 100 µM | [10] > 100 µM | [11] > 100 µM | [12] > 100 µM | [13] > 100 µM | [14] > 100 µM | [15] > 100 µM | [16] > 100 µM | [18] > 100 µM | [19] > 100 µM

Cc1ccccc1[P+](C)(c1ccccc1C)c1ccccc1C
inactive: [1] 24.8 µM | [2] 15.8 µM | [4] 10.6 µM | [5] 6.79 µM | [20] 12.7 µM | [7] 17.8 µM | [9] 7.46 µM | [10] 14 µM | [12] 10.3 µM | [13] 5.24 µM | [14] 1.21 µM | [16] 16.5 µM | [17] 13.4 µM | [18] 33.2 µM | [19] 3.06 µM

CCn1c(SCC(=O)NNC(=S)Nc2ccc(Cl)cc2)nc2ccccc2c1=O
inactive: [1] 45.1 µM | [2] 47.9 µM | [3] 43.9 µM | [4] 70 µM | [5] 39.8 µM | [6] 29.9 µM | [7] > 100 µM | [8] 83 µM | [9] > 100 µM | [10] 56.2 µM | [11] 30.8 µM | [12] 45.3 µM | [13] 59 µM | [14] 24.5 µM | [15] 41.9 µM | [16] 58.1 µM | [17] 74.8 µM | [18] 53.8 µM | [19] 35.8 µM

NC(Cc1ccc(S(=O)(=O)O)cc1)C(=O)NC(Cc1ccc(S(=O)(=O)O)cc1)C(=O)O (centres undefined)
inactive: [1] > 100 µM | [2] > 100 µM | [3] > 100 µM | [4] > 100 µM | [5] > 100 µM | [6] > 100 µM | [7] > 100 µM | [8] > 100 µM | [9] > 100 µM | [10] > 100 µM | [11] > 100 µM | [12] > 100 µM | [13] > 100 µM | [14] > 100 µM | [15] > 100 µM | [16] > 100 µM | [17] > 100 µM | [19] > 100 µM

COc1ccc(S(=O)(=O)O)cc1-n1nc(C(=O)Nc2ccccc2)n[n+]1-c1cc(S(=O)(=O)[O-])ccc1OC
inactive: [1] > 100 µM | [2] > 100 µM | [3] > 100 µM | [4] > 100 µM | [5] > 100 µM | [6] > 100 µM | [7] > 100 µM | [8] > 100 µM | [9] > 100 µM | [10] > 100 µM | [11] > 100 µM | [12] > 100 µM | [13] > 100 µM | [14] > 100 µM | [15] > 100 µM | [16] > 100 µM | [18] > 100 µM | [19] > 100 µM

Cc1cc(S(=O)(=O)Nc2nc(N)n(-c3ccccn3)n2)c(S)cc1Cl
inactive: [1] > 100 µM | [2] > 100 µM | [3] > 100 µM | [4] > 100 µM | [5] > 100 µM | [6] > 100 µM | [7] 75 µM | [8] > 100 µM | [9] > 100 µM | [10] > 100 µM | [11] > 100 µM | [13] > 100 µM | [14] > 100 µM | [16] > 100 µM | [17] > 100 µM | [18] > 100 µM | [19] > 100 µM
